Test results from patent US20230271995A1, “METHODS FOR PRODUCING DIHYDRONICOTINAMIDE RIBOSIDE FROM NICOTINAMIDE RIBOSIDE CHLORIDE” (SOCIETE DES PRODUITS NESTLE S.A., priority 2020, published 2023).

Legend:
[1] = Thermogravimetric analysis (TGA) thermal stability under N2; type: physicochemical; details: 25 to 900° C.
Protocol: Characterization. […] Thermogravimetric analysis (TGA) thermograms were prepared in the range of 20-900° C. at a temperature rate of 10° C. min^−1 under N2 flow, using a TA Q100 instrument.

NAD^+ = details: NR taken as a supplement; cited from earlier work
[2] = Stability of NRH and NR aqueous solutions over 60 days of storage, remaining concentration by HPLC; details: aqueous solution, atmosphere not stated

temperature of greatest weight loss (TGA) ([1]; 10° C. min^−1, N2 atmosphere) [°C] | degradation ([2]; 4° C., 60 days) | degradation ([2]; 25° C., 30 days) [%] | degradation ([2]; 25° C., 60 days) [%] | weight loss at the temperature of greatest weight loss (TGA) ([1]; N2 atmosphere) | Structure (SMILES) | boost of the level of NAD^+ (NAD^+) [%]
~910 | no detectable degradation | 48 | 68 |  | NC(=O)c1ccc[n+]([C@@H]2O[C@H](CO)[C@@H](O)[C@H]2O)c1 [NR, nicotinamide riboside] | 60
 |  |  |  | around 65% | NC(=O)c1ccc[n+]([C@@H]2O[C@H](CO)[C@@H](O)[C@H]2O)c1.[Cl-] [NRCl, nicotinamide riboside chloride] | 
